This experiment addresses benzodiazepine modulatory unit (GABAA receptor complex). Nature of the experiment: In vitro inhibition of 3H-flunitrazepam (3H-FNM) binding. Also noted: species or system rat. The following applies: inhibition of specific binding of 3H-FNM (1 nM); cerebral cortex membranes from male Wistar rats; 40 min at 2° C. How it is done: In vitro inhibition of ^3H-flunitrazepam (^3H-FNM) binding
The GABA recognition site and the benzodiazepine modulatory unit can selectively be labelled with ^3H-flunitrazepam.
Preparations are performed at 0-4° C. unless otherwise indicated. Cerebral cortex from male Wistar rats (150-200 g) is homogenised for 5-10 sec in 20 ml Tris-HCl (30 mM, pH 7.4) using an Ultra-Turrax homogeniser. The suspension is centrifuged at 27,000×g for 15 min and the pellet is washed three times with buffer (centrifuged at 27,000×g for 10 min). The washed pellet is homogenized in 20 ml of buffer and incubated on a water bath (37° C.) for 30 min to remove endogenous GABA and then centrifuged for 10 min at 27,000×g. The pellet is then homogenized in buffer and centrifuged for 10 min at 27,000×g. The final pellet is resuspended in 30 ml buffer and the preparation is frozen and stored at −20° C.
The membrane preparation is thawed and centrifuged at 2° C. for 10 min at 27,000×g. The pellet is washed twice with 20 ml 50 mM Tris-citrate, pH 7.1 using an Ultra-Turrax homogeniser and centrifuged for 10 min at 27,000×g. The final pellet is resuspended in 50 mM Tris-citrate, pH 7.1 (500 ml buffer per g of original tissue), and then used for binding assays. Aliquots of 0.5 ml tissue are added to 25 μl of test solution and 25 μl of ^3H-FNM (1 nM, final concentration), mixed and incubated for 40 min at 2° C. Non-specific binding is determined using Clonazepam (1 μM, final concentration). After incubation the samples are added 5 ml of ice-cold buffer and poured directly onto Whatman GF/C glass fibre filters under suction and immediately washed with 5 ml ice-cold buffer. The amount of radioactivity on the filters is determined by conventional liquid scintillation counting. Specific binding is total binding minus non-specific binding.
25-75% inhibition of specific binding must be obtained, before calculation of an IC50.
The test value will be given as IC50 (the concentration (μM) of the test substance which inhibits the specific binding of ^3H-FNM by 50%).
The molecule `Nc1cccc(-c2cn(-c3cccc(-c4ccccc4)c3)cn2)c1` [1-Biphenyl-3-yl-4-(3-amino-phenyl)-1H-imidazole] showed an IC50 of 800 nM.

For the molecule `COc1ccc(-c2cn(-c3cccc(-c4ccccc4)c3)cn2)cc1` [1-Biphenyl-3-yl-4-(4-methoxy-phenyl)-1H-imidazole], the IC50 turned out to be 460 nM.

The molecule `N#Cc1cccc(-n2cnc(-c3ccccc3)c2)c1` [3-(4-Phenyl-imidazol-1-yl)-benzonitrile] had an IC50 of 100 nM.
